{
  "source": "patent US5216013A",
  "about": "“Aralkyl-N-terminal cycloalkoxy-C terminal amino hydroxy β-amino acid derivatives” (G. D. Searle & Co., priority 1992, dated 1993)",
  "origin": "cited, not measured here",
  "key": {"hog renin": {"tested_on": "hog renin", "details": "after the injection of hog renin into nephrectomized rats"}},
  "note": "Square brackets hold non-standard residues; d marks the D form. Peptide text beside a SMILES is read from it. * marks the point of attachment. Sta = CC(C)C[C@H](N)[C@@H](O)CC(=O)O; Isovaleryl = CC(C)CC(=O)*",
  "data": [
    {"molecule": "CC(C)CC(=O)N[C@H](C(=O)N[C@H](C(=O)N[C@@H](CC(C)C)[C@@H](O)CC(=O)N[C@@H](C)C(=O)N[C@@H](CC(C)C)[C@@H](O)CC(=O)O)C(C)C)C(C)C", "note": "[pepstatin] (Isovaleryl-VV[Sta]A[Sta]-OH)", "values": [
      {"measurement": "inhibition of cathepsin D (in words)", "setting": "cathepsin D", "result": "inhibitor"},
      {"measurement": "blood pressure", "setting": "hog renin", "result": "reduce blood pressure in vivo"},
      {"measurement": "inhibition of pepsin (in words)", "setting": "pepsin", "result": "inhibitor"},
      {"measurement": "inhibition of renin (in words)", "setting": "renin", "result": "inhibitor"}
    ]}
  ]
}
